The values below come from patent publication US20120277209A1, “PYRAZINE COMPOUNDS AS PHOSPHODIESTERASE 10 INHIBITORS” (Amgen Inc., priority 2009, published 2012).

Like-named read-outs stand apart in the source and are kept apart here.

The target of the experiment is PDE10 (UniProt Q9Y233). As to the kind of experiment: PDE10 enzyme inhibition, IMAP TR-FRET assay (MPDE10A7 Enzyme Activity and Inhibition). It counts as biochemical. Put shortly:
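IMAP TR-FRET read-out of PDE10 hydrolysis of fluorescein-cAMP or -cGMP (60 min, room temperature), after a 30 min compound-enzyme preincubation. Enzyme source was PDE10A or tissue homogenate. Averaged IC50s are reported as five range classes.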
In general terms: TR-FRET usually uses a lanthanide donor and a delayed reading to cut background.

[1] abbreviates: IC50 class against PDE10, read-out: IC50.
The mark [2] stands for this setting: PDE10 enzyme inhibition, average IC50 data for each compound, read-out: Average IC50.

In the case of `COc1ncccc1-c1nccnc1Oc1ccc(C(=O)c2nc3ccccc3[nH]2)cc1` [Example 122, (1H-benzo[d]imidazol-2-yl)(4-(3-(2-methoxypyridin-3-yl)pyrazin-2-yloxy)phenyl)methanone], the IC50 – broadly, the concentration that inhibits the measured activity by half – under setting [1] is under 25 nM.

For `Cn1c(C(=O)c2ccc(Oc3nccnc3C3CCOCC3)cc2)nc2ccccc21` [Example 184, (1-methyl-1H-benzo[d]imidazol-2-yl)(4-(3-(tetrahydro-2H-pyran-4-yl)pyrazin-2-yloxy)phenyl)methanone], the IC50 under setting [1] was under 25 nM.

Turning to `O=C(c1ccc(Oc2nccnc2N2CCC[C@H]2CO)cc1)c1nc2ccccc2[nH]1`, the IC50 under setting [2] amounted to 1.12 nM.

Regarding `Cc1ncsc1CCOc1nccnc1Oc1ccc(C(=O)c2nc3ccccc3[nH]2)cc1` [Example 170, (1H-benzo[d]imidazol-2-yl)(4-(3-(2-(4-methylthiazol-5-yl)ethoxy)pyrazin-2-yloxy)phenyl)methanone], the IC50 under setting [1] fell in the range of 100 to 250 nM.

In the case of `Fc1ccc2nc(Nc3ccc(Oc4nccnc4Cl)cc3)sc2c1` [drawing 833], under setting [2], the half-maximal inhibitory concentration (IC50) stood at 538 nM.

Consider `C[C@@H](F)C(=O)N1CCC(c2nccnc2Oc2ccc(Nc3nc4ccccc4s3)cc2)CC1` [Example 279, (R)-1-(4-(3-(4-(benzo[d]thiazol-2-ylamino)phenoxy)pyrazin-2-yl)piperidin-1-yl)-2-fluoropropan-1-one], for which the IC50 (PDE10 enzyme inhibition, chiral compounds separated from racemic mixtures, read-out: IC50) is under 25 nM.

For the molecule `CN1CCN(c2nccnc2Oc2ccc(Nc3nc4ccccc4s3)cc2)CC1` [Example 72, N-(4-(3-(4-methylpiperazin-1-yl)pyrazin-2-yloxy)phenyl)-benzo[d]thiazol-2-amine], the IC50 under setting [1] lay in the range of 25 to 100 nM.

As for `COc1ncccc1-c1nccnc1Oc1ccc(Nc2nc3ccccc3s2)c(F)c1` [drawing 972], the IC50 under setting [2] is 2.68 nM.

Regarding `COC[C@@H]1CCCN1c1nccnc1Oc1ccc(Nc2nc3ccccc3s2)cc1` [Example 57, (S)—N-(4-(3-(2-(METHOXYMETHYL)PYRROLIDIN-1-YL)PYRAZIN-2-YLOXY)PHENYL)BENZO[D]THIAZOL-2-AMINE], the IC50 under setting [1] was under 25 nM.

Take `O=C(c1ccc(Oc2nccnc2C2CCCC2)cc1)c1nc2ccccc2[nH]1` [drawing 949]: under setting [2], the IC50 was found to be 1.76 nM.

Regarding `O=C(c1ccc(Oc2nccnc2C(=O)NCCO)cc1)c1nc2ccccc2[nH]1` [Example 258, 3-(4-(1H-benzo[d]imidazole-2-carbonyl)phenoxy)-N-(2-hydroxyethyl)pyrazine-2-carboxamide], under setting [1], the IC50 lay within 25 to 100 nM.

As to `O=C(c1ccc(Oc2nccnc2C2CCSCC2)cc1)c1nc2ccccc2[nH]1` [drawing 932], the IC50 under setting [2] turned out to be 1.85 nM.

With `O=C(c1ccc(Oc2nccnc2OCC2CC2)cc1)c1nc2ccccc2[nH]1` [Example 163, (1H-benzo[d]imidazol-2-yl)(4-(3-(cyclopropylmethoxy)pyrazin-2-yloxy)phenyl)methanone], the IC50 under setting [1] lay within 250 to 1000 nM.

Regarding `O=C(c1ccc(Oc2nccnc2C2(F)CCOCC2)cc1)c1nc2ccccc2[nH]1` [Example 203, (1H-BENZO[D]IMIDAZOL-2-YL)(4-(3-(4-FLUOROTETRAHYDRO-2H-PYRAN-4-YL)PYRAZIN-2-YLOXY)PHENYL)METHANONE], under setting [1], the IC50 was under 25 nM.

Turning to `Fc1ccc2[nH]c(Nc3ccc(Oc4nccnc4N4CCOCC4)cc3)nc2c1` [Example 64, 5-fluoro-N-(4-(3-morpholinopyrazin-2-yloxy)phenyl)-1H-benzo[d]imidazol-2-amine], the IC50 under setting [1] was 25 to 100 nM.

For the molecule `[2H]C([2H])([2H])C(=O)N1CCC(c2nccnc2Oc2ccc(C(=O)c3nc4ccccc4[nH]3)cc2)CC1` [drawing 993], the IC50 under setting [2] turned out to be 0.105 nM.

For `O=C(c1ccc(Oc2nccnc2C2CCNCC2)cc1)c1nc2ccccc2[nH]1` [drawing 999], the IC50 under setting [2] came to 7.7 nM.

As to `CC(=O)N1CCC(c2nccnc2Oc2ccc(Nc3nc4ccccc4s3)cc2)CC1` [Example 225, 1-(4-(3-(4-(BENZO[D]THIAZOL-2-YLAMINO)PHENOXY)PYRAZIN-2-YL)PIPERIDIN-1-YL)ETHANONE], the IC50 under setting [1] was under 25 nM.

`O=C(c1ccc(Oc2nccnc2C(=O)NCCc2ccc(C(F)(F)F)cc2)cc1)c1nc2ccccc2[nH]1` [Example 255, 3-(4-(1H-benzo[d]imidazole-2-carbonyl)phenoxy)-N-(4-(trifluoromethyl)phenethyl) pyrazine-2-carboxamide]: the IC50 under setting [1] is under 25 nM.

With `COc1ncc(-c2nccnc2Oc2ccc(Nc3nc4ccccc4s3)cc2)cn1` [Example 144, N-(4-(3-(2-methoxypyrimidin-5-yl)pyrazin-2-yloxy)phenyl)benzo[d]thiazol-2-amine], under setting [1], the IC50 was under 25 nM.

Consider `CC(=O)OCC(=O)N1CCC(c2nccnc2Oc2ccc(C(=O)c3nc4ccccc4[nH]3)cc2)CC1` [drawing 991], for which the IC50 under setting [2] is 0.0175 nM.

As for `COc1cc(-c2nccnc2Oc2ccc(Nc3nc4ccccc4s3)cc2)ccn1` [Example 152, N-(4-(3-(2-methoxypyridin-4-yl)pyrazin-2-yloxy)phenyl)benzo[d]thiazol-2-amine], the IC50 under setting [1] was under 25 nM.

Take `CC(C)N1CCN(c2nccnc2Oc2ccc(Nc3nc4ccccc4s3)cc2)CC1=O` [drawing 766]: the IC50 under setting [2] was 12.7 nM.

`COC[C@H](C)NC(=O)c1nccnc1Oc1ccc(C(=O)c2nc3ccccc3[nH]2)cc1` [Example 256, (S)-3-(4-(1H-benzo[d]imidazole-2-carbonyl)phenoxy)-N-(1-methoxypropan-2-yl)pyrazine-2-carboxamide]: the IC50 under setting [1] lay in the range of 25 to 100 nM.

Turning to `[2H]C([2H])([2H])C(=O)N1CCC(c2nccnc2Oc2ccc(C(=O)c3nc4ccccc4[nH]3)cc2)CC1` [Example 231, 1-(4-(3-(4-(1H-benzo[d]imidazole-2-carbonyl)phenoxy)pyrazin-2-yl)piperidin-1-yl)perdeuteroethanone], under setting [1], the IC50 is under 25 nM.

`CC(=O)N1CCC[C@@H](c2nccnc2Oc2ccc(C(=O)c3nc4ccccc4[nH]3)cc2)C1` (stereo in doubt): under setting [2], the IC50 is 2.96 nM.

With `O=C(c1ccc(Oc2nccnc2N2CC(O)C2)cc1)c1nc2ccccc2[nH]1`, the IC50 under setting [2] came to 6.94 nM.

`N#CC1(c2nccnc2Oc2ccc(Nc3nc4ccccc4s3)cc2)CCOCC1` [Example 200, 4-(3-(4-(BENZO[D]THIAZOL-2-YLAMINO)PHENOXY)PYRAZIN-2-YL)TETRAHYDRO-2H-PYRAN-4-CARBONITRILE]: the IC50 under setting [1] is under 25 nM.

Turning to `CC(O)(C1CCN(c2nccnc2Oc2ccc(Nc3nc4ccccc4s3)cc2)CC1)C(F)(F)F` (centres unmarked) [Example 73, 2-(1-(3-(4-(benzo[d]thiazol-2-ylamino)phenoxy)pyrazin-2-yl)piperidin-4-yl)-1,1,1-trifluoropropan-2-ol], under setting [1], the IC50 fell in the range of 250 to 1000 nM.

In the case of `COc1ccncc1-c1nccnc1Oc1ccc(C(=O)c2nc3ccccc3[nH]2)cc1` [Example 112, (1H-benzo[d]imidazol-2-yl)(4-(3-(4-methoxypyridin-3-yl)pyrazin-2-yloxy)phenyl)methanone], the IC50 under setting [1] lay within 25 to 100 nM.

Take “(6-fluoro-1-methyl-1H-benzo[d]imidazol-2-yl)(4-(3-(tetrahydro-2H-pyran-4-yl)pyrazin-2-yloxy)phenyl)methanone and (5-fluoro-1-methyl-1H-benzo[d]imidazol-2-yl)(4-(3-(tetrahydro-2H-pyran-4-yl)pyrazin-2-yloxy)phenyl)methanone [Example 185]”: the IC50 under setting [1] was under 25 nM.

Regarding `C[C@H](F)C(=O)N1CCC(c2nccnc2Oc2ccc(Nc3nc4ccccc4s3)cc2)CC1` [drawing 979], under setting [2], the IC50 is 0.156 nM.
